According to patent US20070082910A1, “Specific nad(p)h oxidase inhibitor” (Mitsubishi Pharma Corporation, priority 2003, published 2007):
Marks after values point to notes of the source that are not given here.

How the values were obtained:
leukocyte NADPH oxidase = experiment: Effect on leukocyte NADPH oxidase (PMA-stimulated lucigenin chemiluminescence); type: cell-based, rat
Experimental: Blood was drawn from the abdominal aorta of normal male Wister rats (Japan SLC) and immediately mixed with an ice-cold lysis buffer at 42 mL of the buffer per 3 mL of the blood.
After 5 min, the mixture was centrifuged at 4° C., 1100 rpm for 5 min. The precipitate was suspended in an ice-cold Lysis buffer, and centrifuged again at 4° C., 1100 rpm for 5 min. This operation was repeated 3 times to obtain leukocytes. The obtained leukocytes were suspended in Krebs-Hepes buffer and the number of the cells was adjusted to 1×10^6/ml. 0.25 mM Lucigenin and the test agent were added, Phorbol 12-myristate 13-acetate (hereinafter to be indicated as “PMA”, SIGMA) was further added, and the chemiluminescence value was measured at 37° C. for 10 min.
The inhibitory rate (%) was calculated by the following formula: inhibitory rate (%)=100−[(A−C)/(B−C))×[…] wherein A is the total chemiluminescence value of the leukocyte suspension with the addition of the test compound, B is the total chemiluminescence value of the leukocyte suspension (control) without addition of the test compound, and C is the total chemiluminescence value of the leukocyte suspension without stimulation with PMA.

[1] = system: atherosclerosis rabbit model; experiment: Atherosclerosis inhibitory effect in cholesterol-fed rabbits; type: in vivo; conditions: for lipid-deposition area (%), abdominal aorta / lipid-deposition area (%), thoracic aorta: 12 weeks, 0.67% cholesterol feed; for lipid-deposition area (%), abdominal aorta / lipid-deposition area (%), thoracic aorta / Plasma lipid concentration TC: mean ± standard error; for Plasma lipid concentration TC: 12 weeks from cholesterol-loading
Experimental: A 0.67% cholesterol-containing feed (40 g/kg/day) and compound A were given to male NZW rabbits (Japan SLC) for 12 weeks. Blood was drawn from the auricular vein using a heparinized capillary tube, and centrifuged at 3000 rpm for 10 min. The total cholesterol (hereinafter to be indicated as “TC”) value of the obtained plasma was measured by an enzyme assay using a measurement kit.
After 12 weeks, the carotid artery was peeled and removed with pentobarbital anesthesia, and exsanguinated to remove the aorta. The obtained carotid artery was immediately placed in Krebs buffer, the surrounding tissues were carefully removed, and the ring specimen was prepared trying not to damage endothelial cells. Then, the ring specimen was suspended in a Magnus tank filled with Krebs buffer at 37° C. under an air flow of 95% O2-5% CO2 mixed gas. The experiment was conducted after reaching a steady state by loading 2 g tension.
For the measurement of a relaxation response, the specimen was contracted in advance with norepinephrine, and when the contraction reached steady state, acetylcholine was cumulatively added. The vascular relaxation rate was determined based on the contraction induced by 10 μM norepinephrine as 100%.
Using a transducer (NIHON KOHDEN), tension was measured isometrically. The significant difference was tested for by variance analysis with two-way layout (Dunnett's method) relative to the control group.
The removed aorta was divided into arch aorta, thoracic aorta and abdominal aorta, fixed with 10% formalin buffer, photographed, the area of the lipid adhered to the aorta was measured and the proportion of the area of the lipid-deposition area relative to the area of aorta was determined.

[2] = system: rat acute myocardial infarction model; experiment: Rat left coronary artery-ligated myocardial infarction model; type: in vivo
Excerpt: Male SD rats (Japan SLC) were fixed in the dorsal position with ether anesthesia, and subjected to thoracotomy by vertical incision along the left sternal line according to the method by Selye H. et al. (Angiology, 1960, 11, 398) to expose the heart. The left coronary artery was ligated using a silk thread (No. 4) at 1-2 mm from the basal part, the heart was put back in place and quickly deaerated, and the chest was closed. The rat was confirmed to have myocardial infarction with an electrocardiograph (NIHON KOHDEN). The rat was exsanguinated to death from the abdominal aorta 24 hr after ligation. The heart was removed, and a circular cross-section at the center thereof was incubated in a solution of 1% 2,3,5-triphenyltetrazolium chloride (hereinafter to be indicated as “TTC”) in 0.1 M phosphate buffer for 20 min under light shielding. Thereafter, the section was fixed with formalin buffer, traced, and the areas of infarction region (TTC unstained region) and left ventricle were calculated. Immediately after coronary artery ligation, compound A was suspended in 1% CMC solution and orally administered to the rat.
The inhibitory rate was calculated by the following formula: [formula] [formula]
In addition, compound A (1 mg/kg) was orally administered at 15 min, 1 hr and 3 hr after ligation, and infarction inhibitory effect was examined.

[3] = system: rabbit chronic myocardial infarction (heart failure) model; experiment: Rabbit chronic myocardial infarction (heart failure) model; type: in vivo
Experimental: Male NZW rabbits (Japan SLC) were fixed in the dorsal position and subjected to thoracotomy with pentobarbital anesthesia. A silk thread (No. 4) was applied to the basal part of the left coronary artery, a polyethylene tube (length 1 cm) was further applied and the left coronary artery was ligated using a thread. After 2 hr from the ligation, the thread on the polyethylene tube was cut to reperfusion. At 2 hr from the reperfusion, compound A (1 mg/kg) was administered once, and administered once a day for 12 weeks. After 12 weeks, an excess pentobarbital was administered, the heart was removed, and the weight thereof and the thickness of the left ventricle center wall were measured.
The compound was evaluated by the mortality rate, heart weight and thickness of left ventricle.

[4] = 0.1 mg/kg oral immediately after coronary artery ligation, 24 hr
[5] = 0.3 mg/kg oral immediately after coronary artery ligation, 24 hr
[6] = 1 mg/kg oral immediately after coronary artery ligation, 24 hr
[7] = 1 mg/kg oral, 15 min after ligation
[8] = 1 mg/kg oral, 1 hr after ligation
[9] = 1 mg/kg oral, 3 hr after ligation
[10] = 1 mg/kg once a day for 12 weeks
[11] = 1 mg/kg once a day, deaths/animals

With `C[C@@H](Nc1nnc(-c2ccccc2)c2ccccc12)C1CCCCC1.O=C(O)/C=C\C(=O)O` [compound A] the “inhibitory rate (%), leukocyte NADPH oxidase” value (leukocyte NADPH oxidase; 1 μM, PMA-stimulated rat leukocytes, mean ± standard error) was 2.4 ± 13.6%, the “inhibitory effect on leukocyte NADPH oxidase” value (leukocyte NADPH oxidase; result in words) was “did not show an inhibitory effect on leukocyte NADPH oxidase” and the “lipid-deposition area (%), abdominal aorta” value ([1]; 1 mg/kg) was 25.4 ± 6.2 %. The “lipid-deposition area (%), thoracic aorta” value ([1]; 1 mg/kg) was 62.1 ± 10.0 %, the “Plasma lipid concentration TC” value ([1]; 1 mg/kg) was 1895.3 ± 244.6 mg/dL and the “lipid-deposition area (%), abdominal aorta” value ([1]; 10 mg/kg) was 18.2 ± 2.2 %. The “lipid-deposition area (%), thoracic aorta” value ([1]; 10 mg/kg) was 56.5 ± 10.5 %, the “Plasma lipid concentration TC” value ([1]; 10 mg/kg) was 1887.9 ± 103.9 mg/dL and the “endothelial-dependent relaxation response of carotid artery by Ach” value ([1]; Ach 10^−8 to 10^−5 M, FIG. 1, result in words) was “significantly improved as compared to the control group”. The “infarction rate (%)” value [2, 4] was 40%, the “inhibitory rate (%) of infarction” value [2, 4] was 0% and the “infarction rate (%)” value [2, 5] was 17.2** %. For the same molecule, the “inhibitory rate (%) of infarction” value [2, 5] was 57** %, the “infarction rate (%)” value [2, 6] was 6.3** % and the “inhibitory rate (%) of infarction” value [2, 6] was 84.3** %. The “infarction rate (%)” value [2, 7] was 10.5** %, the “inhibitory rate (%) of infarction” value [2, 7] was 73.8% and the “infarction rate (%)” value [2, 8] was 16.7** %. The “inhibitory rate (%) of infarction” value [2, 8] was 58.3%, the “infarction rate (%)” value [2, 9] was 29.3* % and the “inhibitory rate (%) of infarction” value [2, 9] was 26.8%. For the same molecule, the mortality rate ([3]; 1 mg/kg once a day) was 8%, the “heart weight (g/kg body weight)” value [3, 10] was 2.05* g/kg body weight and the “thickness (mm) of left ventricle” value [3, 10] was 1.17* mm. For the same molecule, the “cumulative mortality, 2 weeks after ligation” value [3, 11] was 0/12 and the “cumulative mortality, 4 weeks after ligation” value [3, 11] was 1/12.
